One compound from patent US5085989A, “Method and reagent for quantitative analysis of 3-oxo-5β-steroid” (Daiichi Pure Chemicals Co., Ltd., priority 1986, dated 1992) can be followed below.

Like-named read-outs stand apart in the source and are kept apart here.

A short description of this series: Dehydrochoric acid level in serum after intravenous administration (loading test). As to conditions: human, 1000 mg, 1g intravenously; for AUC: read-out: area under concentration curve of the compound in blood (AUC) (converted); for k el: read-out: elimination constant (Kel) (converted). Format: in vivo, human (liver cirrhosis patient and healthy subject). How it is done:
A liver cirrhosis patient and a healthy subject were each intravenously given 1g of dehydrochoric acid. The changes of the dehydrochoric acid level in serum after the administration were determined according to the same procedure as in Example 1 and using the reagent of Example 1. The results are shown in the appended FIG. 1. The elimination constant (keλ), the half-life period (T 1/2) and the area under concentration curve of the compound in blood (AUC) are given in Table 3.

On to `C[C@H](CCC(=O)O)[C@H]1CC[C@H]2[C@@H]3C(=O)C[C@@H]4CC(=O)CC[C@]4(C)[C@H]3CC(=O)[C@]12C` [Dehydrochoric Acid, dehydrochoric acid], for which the AUC by setting is: (healthy subject) 45400 ng·h/mL; (liver cirrhosis patient) 23300 ng·h/mL. Also, the k el is 0.00118 s⁻¹ (healthy subject) and 0.00262 s⁻¹ (liver cirrhosis patient).
